Experimental data: US11453640B2, “Small molecules for disrupting the super elongation complex and inhibiting transcription elongation for cancer therapy” (NORTHWESTERN UNIVERSITY, priority 2018, dated 2022)

Key:
[1] = system: SEC components AFF1 and AFF4; test: Western blotting of SEC and P-TEFb component protein levels in treated cells; assay type: cell-based, human; conditions: HEK293T and HCT-116 cells, 20 μM, 6 hr
Text: FIG. 1. Peptidomimetic identification of disruptors of the AFF4-CCNT1 interaction within the Super Elongation Complex. (A) Schematic for the identification of small molecule inhibitors of the AFF4-CCNT1 interaction using in silico high-throughput screening. Compounds from the ZINC database were docked with the AFF4-CCNT1 structure (4IMY) using a three-tier glide-docking algorithm, which led to 40 candidates. Residues forming the deep binding pocket of CCNT1 are labeled orange and residues of the AFF4 peptide are labeled red. (B) Validation screening identified KL-1 as a potential SEC disruptor using AlphaLISA screening. […] The Ki constants of both compounds were measured with the AlphaLISA assays. […] 5 μl, 10 and 20 μl cell lysates were loaded and the protein levels of AFF1, AFF4, CCNT1, CDK9 and Tubulin (load control) were determined by western blotting.
FIG. 8, related to FIG. 1. […] 293T cells were treated with 20 μM of KL-1 or KL-2 for 6 hr, and the protein levels of BRD2, BRD4, Pol II (RPB1), SPT5, MED26, MYC, HSP90 (load control) and Tubulin (load control) were measured by western blotting. […] HCT-116 cells were treated with 20 μM of KL-1 or KL-2 for 6 hr, and the protein levels of AFF1, AFF4, CCNT1, CDK9 and Tubulin (load control) were determined by western blotting. […] The log2CPM (counts per million) of the SEC subunits were calculated with HTseq. […]

MYC = test: mRNA-seq of 293T cells after 24 hr treatment; assay type: cell-based, human
Text: FIG. 6. SEC disruption targets MYC and MYC target genes. (A-B) Venn diagram of deregulated genes in 293T cells by KL-1 and KL-2. […] (C) Heat map showing the expression changes in response to SEC inhibitors, with differentially expressed canonical MYC targets, RNA splicing factors, and core SNRP assembly genes highlighted. […] Each cluster is represented by different colors and a circle node denotes each enriched term. (E) MA plots of RNA splicing and Hallmark MYC target genes in KL-2 treated, AFF1 and AFF4 co-depletion, and ELL2-depleted cells. […] The MYC genes, the PRMT5 gene, and genes encoding SEC components are denoted as red squares. (F) Western analysis of MYC protein levels in the MYC lowly expressed small cell lung cancer cell line […] and MYC-amplified small cell lung cancer cell line H2171. […] The SEC and MYC peaks were determined by MACS with a p-value cutoff at 1E-5. […] Both cell lines were treated with increasing concentrations of KL-1 and KL-2 for 3 days and the cell proliferation was measured with CellTiter-Glo luminescent cell viability assay (Promega) (n=3-6).
RNA-seq Analysis. […] Exonic reads were assigned to specific genes from Ensembl release 75 using Bioconductor package GenomicRanges countOverlaps. […] The total number of uniquely mapped reads was provided to edgeR for the calcNormFactors normalization rather than the default column sums. […]

SMILES: COc1cccc(C(=O)CC(=O)C(=O)Nc2cc(Cl)ccc2C)c1 [KL-1, N-(5-chloro-2-methylphenyl)-4-oxo-4-(3-methoxyphenyl)-2-oxobutanamide]
- protein levels of CCNT1, CDK9, Pol II, BRD2 and BRD4 [1]: no major effect
- protein levels of SEC components AFF1 and AFF4 [1]: led to depletion of SEC components AFF1 and AFF4
- MYC expression (MYC): led to decreased MYC expression
